Source: US20240374564A1, “NOVEL SEROTONIN DERIVATIVES AND THEIR USES FOR TREATING IRON-ASSOCIATED DISORDERS” (priority 2021, published 2024)

What was measured:
Hbb^Th1/th1 mice [1] = experiment: Model 1 Hbb^Th1/th1 mice, first round: red blood cells production and iron overload; type: in vivo, mouse; conditions: for RBC count / hemoglobin / hematocrit contents: Ip injection; for RBC count: day 1 to 5, FIG. 1A; for hemoglobin: day 1 to 5, FIG. 1B; for hematocrit contents: day 1 to 5, FIG. 1C; for iron content in bone marrow / iron content in spleen: day 5 after sacrifice, FIG. 1D
Source text: (§1) Hbb^th1/th1 mice carry a 3.7-kb homozygous spontaneous deletion that eliminates the Hemoglobin Subunit Beta (HBB) gene and 2 kb of the 5′ flanking region, including the promoter. On the basis of genetic and hematological criteria, these mice constitute the first animal model of beta-thalassemia.
(§2) Mouse models Hbb^Th1/Th1 with ineffective erythropoiesis and iron overload received intraperitoneal (Ip) injection of A1 or A3 derivatives starting on day 0.
(§3) In a first round of experiments, a complete red blood cells count (RBC) was achieved on day 1, day 2 and day 5.
(§4) On day 5, the animals were sacrificed and histology of their organs and iron measurement in organs was carried out.

[2] = test system: cells from beta-thalassemic patients; experiment: FACS analysis in cells from beta-thalassemic patients; type: cell-based, human; conditions: cells from beta-thalassemic patients (n=3), FIG. 8D
Experimental: In vitro tests were carried out on cells derived from blood of β-thalassemic patients before transfusion

[3] = test system: skin fibroblasts from FA/BPAN patients; experiment: Western blot analysis of skin fibroblasts from FA/BPAN patients treated with ferric ammonium citrate; type: cell-based, human; conditions: iron overload (FAC 100 uM)
Experimental: Further tests were carried out on skin fibroblasts from Friedreich ataxia and Beta-propeller protein-associated neurodegeneration (BPAN) patients, to assess in particular the effects of the compounds of the invention on iron accumulation in both the cytosol and mitochondria of said fibroblasts.
Cultured skin fibroblasts from Friedreich ataxia patients were used as described in Petit et al., Blood. 2021; 137 (15): 2090-2102 and Ingrassia et al., Front Genet 2017 Feb. 17; 8:18.

Tph1 KO mice [4] = experiment: Model 2 Tph1 KO mice, first round: red blood cells production and iron overload; type: in vivo, mouse; conditions: for anemic phenotype / RBC count / hemoglobin / hematocrit contents / heme content in red blood cells / mean cellular volume (MCV): Ip injection; for RBC count: day 1 to 5, FIG. 2A; for hemoglobin: day 1 to 5, FIG. 2B; for hematocrit contents: day 1 to 5, FIG. 2C; for heme content in red blood cells: day 1 to 5, FIG. 2D; for mean cellular volume (MCV): day 1 to 5, FIG. 2E; for iron content in spleen / iron content in bone marrow: day 5 after sacrifice; for iron content in spleen: FIG. 2F; for iron content in bone marrow: FIG. 2G
Source text: (§5) This model is a peripheral serotonin deficient mice. It is a mouse model of low risk myelodysplastic syndrome, with ineffective erythropoiesis, light anemia, iron overload (spleen), abnormal red blood cells and apoptosis of proerythroblasts (see Côté et al., PNAS, 2003, 100 (23), 13525-13530).
(§6) Mouse models Tph1 KO with ineffective erythropoiesis and iron overload received intraperitoneal (Ip) injection of A1, A3, A4 derivatives or serotonin starting on day 0.
as §3, §4

Hamp KO mice = experiment: Model 3 Hamp KO mice: iron overload; type: in vivo, mouse
Source text: Hepcidin, encoded by the HAMP gene, is the main regulator of iron homeostasis, and its expression is tightly regulated by signals including iron levels, erythropoietic activity, hypoxia, and inflammation.
It is a mouse model of hemochromatosis. Hepcidin deficient mice progressively develop multivisceral iron overload; plasma iron overcomes transferrin binding capacity, and nontransferrin-bound iron accumulates in various tissues including pancreas and heart (see Nicolas et al., PNAS 2001, 98 (15), 8780-8785).
Mouse model of iron overload without ineffective erythropoiesis (Hamp KO) received intraperitoneal (Ip) injection of A3 derivatives or serotonin starting on day 0.
as §4

Hbb^Th1/th1 mice [5] = experiment: Model 1 Hbb^Th1/th1 mice, second round: FACS, RBC, body iron, urinary ferritin; type: in vivo, mouse; set-up: condition of the mice compared with control: dose or concentration left out as unconfirmed
Source text: as §1, §2
(§7) In a second round of experiments, a complete red blood cells count (RBC) was achieved on day 2 day 5, day 10, day 15, day 20, day 25 and day 30. 4 mice were sacrificed on day 5 and every 5 days afterward for toxicity tests, Flow Cytometry Analysis and FACS (fluorescence-activated single cell sorting) essentially on bone marrow and spleen, biochemical analysis, iron status (organs, serum and urines), and histology.
ProE and Ebaso are part of phases I-II, EBaso and LBaso are part of phases III-IVa, Poly and Ortho are part of phases IVb-V of cells differentiation. The mature stage is also called “acido”.

Tph1 KO mice [6] = experiment: Model 2 Tph1 KO mice, second round: iron distribution, FACS, ferritin; type: in vivo, mouse; set-up: condition of the mice compared with controls: dose or concentration left out as unconfirmed
Source text: as §5, §6, §7

[7] = Hbb^Th1/th1 mice, flow cytometry, day 13, vs PBS-treated mice
[8] = Hbb^th1/th1 mice, 21 days of injection, FIG. 5C
[9] = 5-HT deficient (Tph1 KO) mice, vs PBS

C#CCOc1ccc2[nH]cc(CCN(CC#C)CC#C)c2c1 [Derivative A1, N-(prop-2-yn-1-yl)-N-(2-(5-(prop-2-yn-1-yloxy)-1H-indol-3-yl)ethyl) prop-2-yn-1-amine]
RBC count (Hbb^Th1/th1 mice [1]): improved
hemoglobin (Hbb^Th1/th1 mice [1]): improved
hematocrit contents (Hbb^Th1/th1 mice [1]): improved
iron content in bone marrow (Hbb^Th1/th1 mice [1]): relocate into cells of the bone marrow
iron content in spleen (Hbb^Th1/th1 mice [1]): decreased the iron overload in spleen

C#CCNCCc1c[nH]c2ccc(O)cc12.O=CO [Derivative A3, N-(2-(5-hydroxy-1H-indol-3-yl)ethyl)prop-2-yn-1-aminium formate]
differentiation of erythroid progenitors [2]: increases differentiation of erythroid progenitors
immature/mature ratio [2]: decrease
increased p62 expression ([3]; FIG. 9B): ~60%
decreased FTH expression ([3]; FIGS. 9A-9B): ~40%
anemic phenotype (Tph1 KO mice [4]): ameliorate the anemic phenotype
RBC count (Tph1 KO mice [4]): improved
hemoglobin (Tph1 KO mice [4]): improved
hematocrit contents (Tph1 KO mice [4]): improved
heme content in red blood cells (Tph1 KO mice [4]): improved
mean cellular volume (MCV) (Tph1 KO mice [4]): decrease
iron content in spleen (Tph1 KO mice [4]): mobilized out of the spleen
iron content in bone marrow (Tph1 KO mice [4]): relocate into cells of the bone marrow
iron level in the liver (Hamp KO mice; day 5, FIG. 3B): reduced
RBC count (Hbb^Th1/th1 mice [1]): improved
hemoglobin (Hbb^Th1/th1 mice [1]): improved
hematocrit contents (Hbb^Th1/th1 mice [1]): improved
iron content in bone marrow (Hbb^Th1/th1 mice [1]): relocate into cells of the bone marrow
iron content in spleen (Hbb^Th1/th1 mice [1]): decreased the iron overload in spleen
cell survival (Hbb^Th1/th1 mice [5]; Hbb^Th1/Th1 mice, vs PBS): increased
erythroid expansion (Hbb^Th1/th1 mice [5]; Hbb^Th1/Th1 mice, vs PBS): restored
maturation arrest (Hbb^Th1/th1 mice [5]; Hbb^Th1/Th1 mice, vs PBS): stopped
condition of the mice compared with control (Hbb^Th1/th1 mice [5]; Hbb^Th1/th1 mice, Ip for 13 and 21 days, vs PBS): improved condition of the mice
pathological features of β-thalassemia (Hbb^Th1/th1 mice [5]; Hbb^Th1/th1 mice, conclusion from flow cytometry): corrects pathological features of β-thalassemia
urinary ferritin levels (Hbb^Th1/th1 mice [5]; Hbb^Th1/th1 mice, day 13, vs control mice, FIG. 5D): significant increase
percentage Ter-119+CD71+FSC cells (III-IVa) in bone marrow (Hbb^Th1/th1 mice [5]; [7]): decrease
percentage and absolute number of Ter-119+CD71−FSC cells (IVb-V) in bone marrow (Hbb^Th1/th1 mice [5]; [7]): increase
bone marrow expansion (Hbb^Th1/th1 mice [5]; Hbb^th1/th1 mice, 13 days of injection, FIG. 5A): correction of bone marrow expansion
iron overload (total body iron content) (Hbb^Th1/th1 mice [5]; Hbb^th1/th1 mice, 13 days of injection, FIG. 5B): decrease in iron overload
ratio immature/mature erythroblasts (Ratio Poly/Acido) (Hbb^Th1/th1 mice [5]; Hbb^th1/th1 mice, 21 days of injection): restores
iron overload (total body iron content) (Hbb^Th1/th1 mice [5]; [8]): decrease iron overload
number of erythroid progenitors (Hbb^Th1/th1 mice [5]; [8]): Decrease
number of mature erythroid cells (Hbb^Th1/th1 mice [5]; [8]): Increase
cell blood survival (Tph1 KO mice [6]; [9]): increased
erythroid expansion (Tph1 KO mice [6]; [9]): restored
cellular iron misdistribution (Tph1 KO mice [6]; Tph1 KO mice, 5 days of treatment, vs non-treated, FIG. 7A): corrects cellular iron misdistribution
cellular iron misdistribution (Tph1 KO mice [6]; Tph1 KO mice, 21 days of IP injection, vs PBS, FIG. 7B): corrects cellular iron misdistribution
pathological features of ineffective erythropoiesis (Tph1 KO mice [6]; Tph1 KO mice, 21 days, FIG. 7C): corrects
iron overload (ferritin level) (Tph1 KO mice [6]; Tph1 KO mice, 21 days, bone marrow, FIG. 7C): decrease iron overload
condition of the mice compared with controls (Tph1 KO mice [6]; Tph1 KO mice, IP for 5 and 21 days): improved condition of the mice

C#CCN(CC#C)CCc1c[nH]c2ccc(O)cc12 [Derivative A4, 3-(2-(di(prop-2-yn-1-yl)amino)ethyl)-1H-indol-5-ol]
anemic phenotype (Tph1 KO mice [4]): ameliorate the anemic phenotype
RBC count (Tph1 KO mice [4]): improved
hemoglobin (Tph1 KO mice [4]): improved
hematocrit contents (Tph1 KO mice [4]): improved
heme content in red blood cells (Tph1 KO mice [4]): improved
mean cellular volume (MCV) (Tph1 KO mice [4]): decrease
iron content in spleen (Tph1 KO mice [4]): mobilized out of the spleen
iron content in bone marrow (Tph1 KO mice [4]): relocate into cells of the bone marrow

NCCc1c[nH]c2ccc(O)cc12 [serotonin, 5-hydroxytryptamine]
anemic phenotype (Tph1 KO mice [4]): ameliorate the anemic phenotype
RBC count (Tph1 KO mice [4]): improved
hemoglobin (Tph1 KO mice [4]): improved
hematocrit contents (Tph1 KO mice [4]): improved
heme content in red blood cells (Tph1 KO mice [4]): improved
mean cellular volume (MCV) (Tph1 KO mice [4]): decrease
iron content in spleen (Tph1 KO mice [4]): mobilized out of the spleen
iron content in bone marrow (Tph1 KO mice [4]): relocate into cells of the bone marrow
iron level in the blood (Hamp KO mice; day 5, FIG. 3A): reduced
transferrin saturation (Hamp KO mice; day 5, FIG. 3C): reduced
